Source: patent US20250082674A1, “METHODS OF TREATING COPPER METABOLISM-ASSOCIATED DISEASES OR DISORDERS” (priority 2021, published 2025)
Where two headings read alike, the source gives them in different places.

Columns and labels:
[1] = human, in vivo
From the text: Pharmacokinetics: Blood samples for PK analysis were collected to measure plasma total molybdenum and plasma ultrafiltrate (PUF) molybdenum.

[2] = test system: patients with Wilson disease (WD); experiment: Study 301: Unified Wilson Disease Rating Scale (UWDRS Parts II, III); assay type: in vivo, human
Method: The UWDRS scoring system was developed specifically for the motor and movement disorders associated with chronic copper neurotoxicity in WD. Some individual items/subscales of the UWDRS Part III (arising from a chair, gait, handwriting, and speech) in addition to the UWDRS Parts I, II, and III overall, were assessed to further define the range of burdensome signs and symptoms of WD, so as to further understand the assessment of treatment effects on patients with WD. The UWDRS scores for consciousness (Part I) and abnormal neurologic examination findings (Part III) will be determined by a trained neurologist rater who is blinded to study treatment randomization. These scores were used to provide a rigorous dataset for evaluating changes from baseline.
Unified Wilson Disease Rating Scale (Parts I, II, and III): The UWDRS is a clinical rating scale designed to evaluate the neurological manifestations of WD that generally can be divided into 3 movement disorder syndromes: dystonic, ataxic, and Parkinsonian syndrome. The UWDRS comprises 3 parts: UWDRS Part I (level of consciousness, item 1), UWDRS Part II (a patient-reported review of daily activity items [disability], items 2 to 11), and UWDRS Part III (a detailed neurological examination, items 12 to 34).
The UWDRS Part I and Part III were assessed by a neurologist who is blinded to the treatment randomization, while UWDRS Part II may be reported to a non-blinded member of the study team by the patient, family member, or caregiver. The UWDRS has not been formally evaluated in adolescents. However, the components of Part I (level of consciousness), Part II (patient or caregiver-reported disability) and Part III (neurologic examination findings) were not fundamentally different between adults and adolescents. Patients aged 12 years and older were expected to be able to comply with UWDRS assessments.
There were trends toward stability/improvement for both treatment groups. […] As approximately 50% of patients had baseline UWDRS scores of 0, and those patients that did have scores greater than zero were relatively low in the respective UWDRS Part II (score range: 0-40) and UWDRS Part III (score range: 0-175) scale range, there was little room for improvement.

copper = test system: copper
Method: Study 204 is registered with ClinicalTrials.gov, number NCT04573309, and is described in Example 1 of U.S. Provisional Patent Application No. 63/237,120, filed Aug. 25, 2021, and incorporated by reference herein. […] The participants remained on a Cu-controlled diet, and Cu and Mo balance were measured on all intake (i.e., investigational agent, food and fluids) and all output (urine and feces). The Cu and Mo concentration of each sample was determined by inductively coupled plasma mass spectrometry (ICP-MS). Copper and Mo content of all intake and output was calculated based on the volume or weight of intake and output and the concentration of representative samples.
Collection periods for feces and urine varied in duration from 3 to 15 days to support assessment of both Cu and Mo balance before and at steady state for both 15 mg and 30 mg. Equilibration periods on Cu/Mo-controlled diets were a minimum of 48 hours. Copper balance was calculated as the mean daily Cu balance over each of the 4 collection periods. The interpretation of Cu balance was based on the criteria previously established when undertaking Cu balance studies with zinc treatment.
These participants had all intake (food and drink) and output (urine and feces) collected from Day-4 through Day-1 (baseline), from Day 1 through Day 8, and Day 25 through Day 39.

patients with WD = test system: patients with WD
From the text: All patients who completed the 24-week Study Period were enrolled in a 36-month Extension Period.

[3] = test system: ^64CuCl2 (^64Cu) intestinal absorption and hepatic copper uptake; experiment: Example 2: Copper Absorption study, oral 64Cu PET-CT in healthy subjects; assay type: in vivo, human
Method: Blood was collected at several time points to assess plasma copper kinetics. The study was carried out as a randomized, placebo-controlled intervention study. […] The study assessed the previously listed organs and the effect of anti-copper treatment by comparing the mean standard uptake value (SUV) in the organs of interest. […] The dynamic baseline scans and the subsequent static scans were compared across all treatments.

[4] = Study 301, patients symptomatic at baseline, Cohort 1
[5] = Study 301, patients symptomatic at baseline, Cohort 2
[6] = Study 301, patients symptomatic at baseline, Overall
[7] = Study 204, Days 1-8 (Accumulation 15 mg/day)
[8] = Study 204, Days 25-28 (Steady State 15 mg/day)
[9] = Study 204, Days 31-35 (Accumulation 30 mg/day)
[10] = Study 204, Days 36-39 (Steady State 30 mg/day)
[11] = healthy subjects, after 15 hours

Bis-choline tetrathiomolybdate [BC-TTM]
Daily Mean AUC(0-48 weeks) PUF Mo, Mean [1]: 0.1 mmol/L | UWDRS Part II (0-40), Change from Baseline at 48 weeks, Mean ([2]; Study 301, Full Analysis Set): −0.6 | UWDRS Part II (0-40), Difference at 48 weeks, LSM (SE), BC-TTM vs SoC ([2]; Study 301, Full Analysis Set): 0.4 (0.51) | UWDRS Part III (0-175), Change from Baseline at 48 weeks, Mean ([2]; Study 301, Full Analysis Set): −2.20 | UWDRS Part III (0-175), Difference at 48 weeks, LSM (SE), BC-TTM vs SoC ([2]; Study 301, Full Analysis Set): −0.09 (1.322) | UWDRS Part III functional subscale (0-10), Change from Baseline at 48 weeks, Mean ([2]; Study 301, Full Analysis Set): −0.147 | UWDRS Part III functional subscale (0-10), Difference at 48 weeks, LSM (SE), BC-TTM vs SoC ([2]; Study 301, Full Analysis Set): −0.067 (0.1344) | UWDRS Part III-arising from chair (0-4), Change from Baseline at 48 weeks, Mean ([2]; Study 301, Full Analysis Set): 0.0 | UWDRS Part III-arising from chair (0-4), Difference at 48 weeks, LSM (SE), BC-TTM vs SoC ([2]; Study 301, Full Analysis Set): 0.0 (0.06) | UWDRS Part III-gait (0-10), Change from Baseline at 48 weeks, Mean ([2]; Study 301, Full Analysis Set): −0.06 | UWDRS Part III-gait (0-10), Difference at 48 weeks, LSM (SE), BC-TTM vs SoC ([2]; Study 301, Full Analysis Set): −0.15 (0.192) | UWDRS Part III-handwriting (0-4), Change from Baseline at 48 weeks, Mean ([2]; Study 301, Full Analysis Set): −0.1 | UWDRS Part III-handwriting (0-4), Difference at 48 weeks, LSM (SE), BC-TTM vs SoC ([2]; Study 301, Full Analysis Set): −0.1 (0.09) | UWDRS Part III-speech (0-4), Change from Baseline at 48 weeks, Mean ([2]; Study 301, Full Analysis Set): −0.1 | UWDRS Part III-speech (0-4), Difference at 48 weeks, LSM (SE), BC-TTM vs SoC ([2]; Study 301, Full Analysis Set): 0.0 (0.07) | key secondary efficacy endpoints, BC-TTM versus SoC ([2]; Study 301, after adjusting for multiplicity (hierarchical testing)): none of the key secondary efficacy endpoints were statistically significantly different | UWDRS Part III, Week 48 Change from Baseline, LSM Diff, BC-TTM vs SoC [2, 4]: −0.79 | UWDRS Part III, Week 48 Change from Baseline, Mean [2, 4]: −2.86 | UWDRS Part III, Week 48 Change from Baseline, Median [2, 4]: −2.00 | UWDRS Part III, Week 48 Change from Baseline, LSM ([2]; Study 301, patients symptomatic at baseline, Cohort 1, MMRM): −2.68 | UWDRS Part III, Week 48 Change from Baseline, LSM Diff (SE), BC-TTM vs SoC [2, 5]: 0.05 (5.041) | UWDRS Part III, Week 48 Change from Baseline, Mean [2, 5]: −3.10 | UWDRS Part III, Week 48 Change from Baseline, Median [2, 5]: −3.00 | UWDRS Part III, Week 48 Change from Baseline, LSM ([2]; Study 301, patients symptomatic at baseline, Cohort 2, MMRM): 1.43 | UWDRS Part III, Week 48 Change from Baseline, LSM Diff, BC-TTM vs SoC [2, 6]: −0.33 | UWDRS Part III, Week 48 Change from Baseline, Mean [2, 6]: −2.91 | UWDRS Part III, Week 48 Change from Baseline, Median [2, 6]: −2.00 | UWDRS Part III, Week 48 Change from Baseline, LSM ([2]; Study 301, patients symptomatic at baseline, Overall, MMRM): −1.54 | Daily Net Copper Balance, Change from Baseline, Median (IQR) (copper; [7]): −0.4291 (0.2176) mg | Daily Net Copper Balance, Value, Mean (SD) (copper; [7]): 0.7654 (0.3538) mg | Daily Net Copper Balance, Value, Median (IQR) (copper; [7]): 0.6678 (0.6871) mg | Increase from Baseline in Average Daily Fecal Copper Excretion, Mean (SD) (copper; [7]): 0.3278 (0.319) mg | Increase from Baseline in Average Daily Urine Copper Excretion, Mean (SD) (copper; [7]): −0.0108 (0.01119) mg | Daily Net Copper Balance, Change from Baseline, Median (IQR) (copper; [8]): −0.1459 (1.0434) mg | Daily Net Copper Balance, Value, Mean (SD) (copper; [8]): 0.7638 (0.9138) mg | Daily Net Copper Balance, Value, Median (IQR) (copper; [8]): 1.1434 (1.7052) mg | Increase from Baseline in Average Daily Fecal Copper Excretion, Mean (SD) (copper; [8]): 0.4931 (0.4955) mg | Increase from Baseline in Average Daily Urine Copper Excretion, Mean (SD) (copper; [8]): 0.1042 (0.08556) mg | Daily Net Copper Balance, Change from Baseline, Median (IQR) (copper; [9]): −0.3707 (0.1093) mg | Daily Net Copper Balance, Value, Mean (SD) (copper; [9]): 0.8577 (0.3427) mg | Daily Net Copper Balance, Value, Median (IQR) (copper; [9]): 0.8312 (0.6838) mg | Increase from Baseline in Average Daily Fecal Copper Excretion, Mean (SD) (copper; [9]): 0.3879 (0.4193) mg | Increase from Baseline in Average Daily Urine Copper Excretion, Mean (SD) (copper; [9]): 0.0744 (0.05427) mg | Daily Net Copper Balance, Change from Baseline, Median (IQR) (copper; [10]): −0.4225 (0.2275) mg | Daily Net Copper Balance, Value, Mean (SD) (copper; [10]): 0.8582 (0.2565) mg | Daily Net Copper Balance, Value, Median (IQR) (copper; [10]): 0.7986 (0.5024) mg | Increase from Baseline in Average Daily Fecal Copper Excretion, Mean (SD) (copper; [10]): 0.0899 (0.2021) mg | Increase from Baseline in Average Daily Urine Copper Excretion, Mean (SD) (copper; [10]): 0.1042 (0.04328) mg | Daily Net Copper Balance, Change from Baseline, Mean (SD) (copper; Study 204, Table 10, Days 1-8 (Accumulation 15 mg/day)): −0.4848 (0.119) mg | Daily Net Copper Balance, Change from Baseline, Mean (SD) (copper; Study 204, Table 10, Days 25-28 (Steady State 15 mg/day)): −0.4865 (0.5993) mg | Daily Net Copper Balance, Change from Baseline, Mean (SD) (copper; Study 204, Table 10, Days 31-35 (Accumulation 30 mg/day)): −0.3925 (0.05781) mg | Daily Net Copper Balance, Change from Baseline, Mean (SD) (copper; Study 204, Table 10, Days 36-39 (Steady State 30 mg/day)): −0.3921 (0.1168) mg | Decrease from Baseline in Average Daily Net Copper Balance, Change from Baseline Mean (SD) (copper; Study 204, Table 13, Days 1-8 (Accumulation 15 mg/day)): −0.4848 (0.119) mg | Decrease from Baseline in Average Daily Net Copper Balance, Change from Baseline Mean (SD) (copper; Study 204, Table 13, Days 1-39): −0.448 (0.1469) mg | Decrease from Baseline in Average Daily Net Copper Balance, Change from Baseline Mean (SD) (copper; Study 204, Table 13, Days 25-28 (Steady State 15 mg/day)): −0.6381 (0.7673) mg | Decrease from Baseline in Average Daily Net Copper Balance, Change from Baseline Mean (SD) (copper; Study 204, Table 13, Days 31-35 (Accumulation 30 mg/day)): −0.3925 (0.05781) mg | Decrease from Baseline in Average Daily Net Copper Balance, Change from Baseline Mean (SD) (copper; Study 204, Table 13, Days 36-39 (Steady State 30 mg/day)): −0.2765 (0.3138) mg | liver status, Modified Nazer Score (patients with WD; Study 201): stabilized or improved in the majority of patients | neurological status, change from baseline in UWDRS Part III (patients with WD; Study 201, p<0.0001): significant improvements | patient-reported disability, change from baseline in UWDRS Part II (patients with WD; Study 201, p<0.001): significant improvements | participants with total cholesterol increase above the ULN (patients with WD; human, in vivo): 7 participants | patients with reversible liver (function) test elevations (patients with WD; human, in vivo): 39% | tolerability (patients with WD; human, in vivo): generally well-tolerated | copper uptake in the liver one hour after oral 64Cu tracer ([3]; healthy subject, FIG. 25): virtually no copper uptake in the liver | Absorption of orally-administered copper compared to penicillamine, trientine, or placebo ([3]; healthy subjects): significantly reduced | blood levels of 64Cu ([3]; healthy subjects): reduced | mean SUV liver / hepatic uptake of labeled copper, comparison between treatments ([3]; healthy subjects, 1 hour and 15 hours after oral 64Cu): significantly lower | reduction of mean hepatic copper uptake ([3]; healthy subjects, 1 hr scan post treatment, oral 64Cu, 7 days treatment): ~90% | range of reduction in hepatic copper uptake ([3]; healthy subjects, 13 hour scan): 60%-90% | mean SUV liver compared with baseline or placebo ([3]; healthy subjects, FIG. 26): markedly reduced | mean SUV 64Cu Pancreas post treatment ([3]; healthy subjects, after 1 hour): lower than penicllamine, trientine and placebo | mean SUV 64Cu Urinary bladder post treatment ([3]; healthy subjects, after 1 hour): lower than penicllamine, trientine and placebo | mean SUV 64Cu Colon post treatment [3, 11]: higher than penicillamine and placebo | mean SUV 64Cu Gallbladder post treatment [3, 11]: lower than penicllamine, trientine and placebo
